Reference: patent publication EP4609864A1, “PHARMACEUTICAL COMPOSITION CONTAINING ISOQUINOLINONE COMPOUND, AND PREPARATION METHOD THEREFOR” (Jiangsu Hengrui Pharmaceuticals Co., Ltd., priority 2022, dated 2024)

Tests used:
[1] = tested on: immune cells in BALF; assay: Mouse model of LPS-induced acute pulmonary inflammation: immune cell counts in BALF; type: in vivo, BALB/c mouse; conditions: 1.0 mg/kg intratracheal nebulized, 1 h before LPS; BALF 6 h after modeling; vs. model group
Description: (§1) The study utilized a BALB/c mouse model of LPS-induced acute pulmonary inflammation to evaluate the inhibitory effect of the compound on pulmonary inflammation based on immune cell counts and TNFα cytokine levels in bronchoalveolar lavage fluid (BALF). The mice were divided into 6 groups, with 8 mice per group, including: a normal control group, a model control group, an RPL554 group (1.0 mg/kg), and low, medium, and high dose groups of compound A (0.3 mg/kg, 1.0 mg/kg, and 3.0 mg/kg). One hour after intratracheal administration of nebulized drugs, the mice were stimulated by nebulized LPS for modeling. Six hours after modeling, BALF was collected from the animals, and the total cells, the neutrophils, and the eosinophils in BALF were counted, along with the measurement of the pro-inflammatory cytokine TNFα level in BALF.

[2] = tested on: TNFα; assay: Mouse model of LPS-induced acute pulmonary inflammation: TNFα level in BALF; type: in vivo, BALB/c mouse; conditions: 1.0 mg/kg intratracheal nebulized, 1 h before LPS; BALF 6 h after modeling; vs. model group
Description: as §1

[3] = phase II; patients with chronic obstructive pulmonary disease; cited from earlier work

COc1cc2c(cc1OC)-c1c/c(=N\c3c(C)cc(C)cc3C)n(CCNC(N)=O)c(=O)n1CC2 [RPL554, 9,10-dimethoxy-2-(2,4,6-trimethylphenylimino)-3-(N-carbamoyl-2-aminoethyl)-3,4,6,7-tetrahydro-2H-pyrimido[6,1-α]isoquinolin-4-one]
number of eosinophils in BALF [1]: significantly lower | number of neutrophils in BALF [1]: significantly lower | number of total cells in BALF [1]: significantly lower | TNFα level in BALF [2]: downward trend | bronchodilation and symptoms [3]: significantly improve bronchodilation and symptoms | tolerability, adverse events [3]: well tolerated
